What all share (type): biochemical
For test [1], the target named is T1, MIF2 (Homo sapiens, UniProt P30046).
T1 construct: made in house; host or cells: E. coli BL21(DE3), pET20b(+)
Kind of test: MIF2 tautomerase activity inhibition (PP substrate, UV 300 nm). Here is the method: 2. Preparation of recombinant MIF and MIF2. […]
Purity of obtained protein was tested by SDS-PAGE and Coomassie staining. […]
(§1) The detailed procedure to produce recombinant human MIF2 was reported in our previous publications.[7] Gene sequences of the human MIF2 gene (Invitrogen) was adapted to bacterial expression. After subcloning into a pET20b(+) expression vector, IPTG-induced expression was performed in E.coli strain BL21(DE3). MIF2 proteins were overproduced overnight and harvested cells were resuspended and sonicated. The soluble fraction was puriﬁed using a Q sepharose column (GE Healthcare) with a gradient of NaCl. The fractions containing MIF2 were brought to 1.7 M ammonium sulfate and loaded on a phenyl sepharose column (GE Healthcare) and eluted with a gradient to 0 M ammonium sulfate in a 20 mM sodium phosphate buffer, pH 8.0. Finally, the proteins were purified by size exclusion chromatography on a Superdex75 column (GE Healthcare) in 20 mM sodium phosphate buffer, pH 8.0, with an elution volume characteristic for trimeric MIF2. The collected protein was concentrated using a VivaSpin centrifugation column with a molecular weight cut off at 5000 D a (Sartorius Stedim Biotech GmbH). Purified proteins were aliquoted, snap frozen in liquid nitrogen, and stored at –80 °C. Purity of obtained protein was tested by SDS-PAGE and coomassie staining. The concentration of protein was determined using the Bradford a ssay.
(§2) 3.1 MIF and MIF2 Inhibition
(§3) The protocol for measuring inhibition of MIF or MIF2 tautomerase enzyme activity was described previously.[5] 500 nM MIF solution (180 µL) or 100 nM MIF2 solution (180 µL) in boric acid buffer ([…], pH 6.2) was mixed with 20 mM EDTA solution (10 µL) in demineralized water. A solution of the desired compound dissolved in DMSO (10 µL) or blank DMSO (10 µL) was added. The resulting mixture was preincubated at room temperature for 10 minutes.
(§4) Subsequently, 50 µL of this mixture was mixed with 50 µL of a 1 mM 4-HPP solution for MIF or 1 mM PP solution for MIF2 in ammonium acetate buffer (50 mM, pH 6.0). Thereafter, MIF or MIF2 tautomerase activity was monitored by measuring the increase of UV absorbance at 306 nm for MIF or 300 nm for MIF2 over time. The MIF or MIF2 tautomerase activity of the mixture with blank DMSO dilution was set to 100% enzyme activity. Noncatalyzed conversion of the substrate in the mixture without MIF or MIF2 was set to 0%. The data acquired from the first 3 minutes of the measurement were used to calculate the initial conversion speed. All experiments were performed in triplicate and data processing was done using the program […]
(§5) Table S1. IC50 values (10 min) and inactivation parameters of synthesized compounds.
(§6) (1 picture or pasted object on this page, not shown here)

Test [2] addresses T2, MIF (Homo sapiens, UniProt P14174).
T2 construct: His tag (C); made in house; host or cells: Escherichia coli BL21 (DE3), pET-20b(+)
T2 sequence (P14174 2-115 limits assumed): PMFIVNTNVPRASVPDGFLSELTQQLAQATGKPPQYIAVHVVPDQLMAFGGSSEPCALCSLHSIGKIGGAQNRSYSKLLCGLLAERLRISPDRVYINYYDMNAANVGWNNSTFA
The test is described as follows: MIF tautomerase activity inhibition (4-HPP substrate, UV 306 nm). Conditions: for potency relative to corresponding chloro-substituted intermediate: iodo compound vs chloro intermediate. As to the method:
2. Preparation of recombinant MIF and MIF2.
The detailed procedure to produce C-terminal His-tagged recombinant human MIF was reported in our previous publications.[1,4,5] rhMIF was expressed through transforming a pET-20b(+) plasmid containing the target gene into Escherichia coli BL21 (DE3) according to literature procedures.[6] Overexpression was performed and cells were collected and sonicated.
The obtained supernatant was applied to a medium pressure chromatography system (Biologic Duoflow) equipped with a His trap HP (5 mL) column with detection at 280 nm for the eluent.
The column was washed with a binding buffer containing 50 mM Tris and 10% glycerol at pH 7.4 and eluted with elution buffer containing 500 mM imidazole, 50 mM Tris, 10% glycerol at pH 7.4. The pure fractions (as judged by SDS-PAGE) were pooled and subjected to a PD-10 column (GE healthcare) that was equilibrated with PBS buffer at pH 7.4 to remove the high concentration of imidazole. The collected MIF solution was divided into 50 µL aliquots and stored at –80 °C. Purity of obtained protein was tested by SDS-PAGE and Coomassie staining.
The concentration of protein was determined using the Bradford assay.
as §1, §2, §3, §4, §5, §6

The target of test [3] is T2, MIF. The test is described as follows: Kitz-Wilson inactivation kinetics on MIF tautomerase. Conditions: for KI (inactivation) / kinact: Kitz-Wilson analysis, ±SD, n=3; for KI (inactivation): read-out: KI MIF (inhibition constant); for kinact: read-out: kinact MIF (rate of enzyme inactivation) (converted). Here is the method: (§7) In order to derive the kinetic parameters for inactivation of MIFand MIF2, we employed the approach described by Kitz and Wilson. Briefly, four different concentrations of the inhibitor with four different pre-incubation times were selected. The assay conditions are described above with the difference in incubation time.
(§8) For the data analysis, the pre-incubation times for the different concentration of the inhibitor versus the remaining enzyme activity were plotted, so from the linear regression the slope of each concentration of the probe was obtained ( Table S3). Then the 1/slope versus 1/[inhibitor] were plotted (Figure 4) and from the linear regression line ki was derived from the 1/y -intercept and derived from the slope times the ki as described by Kitz and Wilson.
For example, for the probe 8 the equation is: Y = 7,476*X + 5,069
So, the kinact and the KI values are: kinact =1/5,069 =0.20 min-1
(also on this page, place not known: -1 0 1 2 3 0 50 100 log [FM011] (µM) DDT (%) -1 0 1 2 3 0 50 100 log [ZP308] (µM) DDT activity (%) 0.0 0.5 1.0 1.5 2.0 0 50 100 log [ZP307] (µM) DDT activity (%) 1.4 1.6 1.8 2.0 2.2 0 50 100 log [FM031] (µM) DDT activity (%) pre -incubation cond itions pre -incubation activity o f (Table 1/y-intercept) […]
(§9) Table S4. Kinetics studies results.
(§10) Time-dependent inhibition Kitz and Wilson curve […]
ln (MIF tautomerase activity %)
Time-dependent inhibition on MIF Y = 7,476*X + 5,069
Time-dependent inhibition on MIF Y = 12,07*X + 4,234 […]
ln (MIF2 tautomerase activity %)
(§11) Time-dependent inhibition on MIF2 Y = 299,5*X + 11,14 […]

For test [4], the target named is T1, MIF2. The test is described as follows: Kitz-Wilson inactivation kinetics on MIF2 tautomerase. Particulars: Kitz-Wilson analysis, ±SD, n=3. Here is the method: as §7, §8
For example, for the probe 8 the equation is: Y = 7,476*X + 5,069 […]
as §9, §10
ln (MIF tautomerase activity %) […]
as §11

The mark [5] stands for this setting: Table 1, tautomerase activity, mean±SD, n=3, read-out: IC50 MIF2.
Where [6] appears, read: Table 1, tautomerase activity, mean±SD, n=3, read-out: IC50 MIF.
Setting [7] is: Table S1, 10 min, read-out: IC50 (µM) MIF2.
Setting [8] is: Table S1, 10 min, read-out: IC50 (µM) MIF.
Where [9] appears, read: Table 2, 10 min pre-incubation, ±SD, n=3, read-out: IC50 MIF2.
Setting [10] is: Table 2, 10 min pre-incubation, ±SD, n=3, read-out: IC50 MIF.

Read-outs that look alike come from different tables or passages of the source.

T1 sequence (P30046 2-118 limits assumed): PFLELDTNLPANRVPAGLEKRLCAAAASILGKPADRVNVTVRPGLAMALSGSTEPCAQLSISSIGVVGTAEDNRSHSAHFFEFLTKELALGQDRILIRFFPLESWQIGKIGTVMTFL

With `Ic1cc(-c2ccccc2)ncn1` [Compound 1, 4‐iodo‐6‐phenylpyrimidine, reference compound], the IC50 in test [1] (setting [5]) was more than 250 µM; in test [2] (setting [6]), 4 ± 0.98 µM. The “potency relative to corresponding chloro-substituted intermediate” value in test [2] (Table S1) is on record as “at least two times more potent”.

On to `Clc1cc(-c2ccccc2)ncn1` [Compound 1a], for which the values for the IC50 in test [1] (setting [7]) and in test [2] (setting [8]) were more than 250 µM and 16 µM, respectively.

In the case of `O=C(O)c1ccc(-c2cc(Cl)ncn2)cc1` [Compound 2a], the IC50 in test [1] (setting [7]) was more than 250 µM; in test [2] (setting [8]), 17 µM.

For `Cc1nc(I)cc(-c2ccc(C(=O)O)cc2)n1` [Compound 3], the IC50 in test [1] (setting [5]) and in test [2] (setting [6]) was more than 250 µM throughout.

Regarding `Cc1nc(Cl)cc(-c2ccc(C(=O)O)cc2)n1` [Compound 3a], the IC50 is 103 µM in test [1] (setting [7]); 107 ± 6 µM in test [1] (Table S3 dose-inhibition curves (DDT activity), read-out: IC50 MIF2 tautomerase); 95 µM in test [2] (setting [8]); 72 ± 17 µM in test [2] (Table S2 dose-inhibition curves, read-out: IC50 MIF tautomerase).

As to `O=C(O)c1ccc(-c2cc(I)nc(N3CCOCC3)n2)cc1` [Compound 4], the figures for the IC50 in test [1] (setting [5]) and in test [2] (setting [6]) were more than 250 µM and 15 ± 7.5 µM, respectively. Moreover, in test [2] (Table S1), the “potency relative to corresponding chloro-substituted intermediate” value was “at least two times more potent”.

`O=C(O)c1ccc(-c2cc(Cl)nc(N3CCOCC3)n2)cc1` [Compound 4a]: the IC50 is more than 250 µM in test [1] (setting [7]) and 174 µM in test [2] (setting [8]).

Regarding `O=C(O)c1ccc(-c2cc(I)nc(-c3ccccc3)n2)cc1` [Compound 5, 4-(6-Iodo-2-phenylpyrimidin-4-yl)benzoic acid], the values for the IC50 in test [1] (setting [5]) and in test [2] (setting [6]) were more than 250 µM and 59 ± 6.3 µM, respectively.

Take `O=C(O)c1ccc(-c2cc(Cl)nc(-c3ccccc3)n2)cc1` [Compound 5a, 4-(6-Chloro-2-phenylpyrimidin-4-yl)benzoic acid]: the IC50 came to 85 µM in test [1] (setting [7]) and 36 µM in test [2] (setting [8]).

On to `Cc1c(I)ncnc1-c1ccc(C(=O)O)cc1` [Compound 6, 4-(6-Iodo-5-methylpyrimidin-4-yl)benzoic acid], for which the IC50 in test [1] (setting [5]) was more than 250 µM; in test [2] (setting [6]), 56 ± 12 µM. In addition, in test [2] (Table S1), the “potency relative to corresponding chloro-substituted intermediate” value is reported as “at least two times more potent”.

Take `Cc1c(Cl)ncnc1-c1ccc(C(=O)O)cc1` [Compound 6a, 4-(6-Chloro-5-methylpyrimidin-4-yl)benzoic acid]: the IC50 in test [1] (setting [7]) and in test [2] (setting [8]) was more than 250 µM in each case.

With `O=[N+]([O-])c1ccc(-c2cc(I)ncn2)cc1` [Compound 7, 4-Iodo-6-(4-nitrophenyl)pyrimidine], the IC50 is more than 250 µM in test [1] (setting [5]), more than 250 µM in test [1] (setting [9]), 0.63 ± 0.06 µM in test [2] (setting [6]) and 0.63 ± 0.06 µM in test [2] (setting [10]). For the same compound, in test [3], the KI (inactivation) was 3.9 ± 0.7 µM. Besides, the kinact in test [3] is 0.00467 s⁻¹. In test [2] (from tautomerase IC50 values), the “selectivity for MIF over MIF2” value is reported as more than 400 fold. Besides, in test [2] (Table S1), the “potency relative to corresponding chloro-substituted intermediate” value was “at least two times more potent”.

`O=[N+]([O-])c1ccc(-c2cc(Cl)ncn2)cc1` [Compound 7a, 4-Chloro-6-(4-nitrophenyl)pyrimidine]: the IC50 in test [1] (setting [7]) is more than 250 µM; in test [2] (setting [8]), 1.4 µM.

Turning to `Nc1ccc(-c2cc(Cl)ncn2)cc1` [Compound 8a, 4-(6-Chloropyrimidin-4-yl)aniline], the IC50 was determined as 83 µM in test [1] (setting [7]) and 1.7 µM in test [2] (setting [8]).

As to `O=C(CCCC[C@@H]1SC[C@@H]2NC(=O)N[C@@H]21)NCCNC(=O)c1ccc(-c2cc(I)ncn2)cc1` [Compound 9], the “improvement of potency for MIF2 inhibition compared to parental inhibitor 2” value in test [1] was 2–6 factor. Moreover, the IC50 in test [1] (setting [9]) is 78 ± 7.7 µM; in test [2] (setting [10]), 0.24 ± 0.05 µM; in test [2] (approximate, read-out: IC50 on MIF) it was approximately 0.2 µM. Also, the “KI on MIF relative to IC50” value in test [3] (KI higher than IC50) is “about 10 times”. Further, the KI (inactivation) in test [3] was determined as 2.8 ± 0.67 µM; in test [4] (read-out: KI MIF2 (inhibition constant)), 85 ± 8.6 µM. The kinact in test [3] was 0.004 s⁻¹; in test [4] (read-out: kinact MIF2 (rate of enzyme inactivation)), 0.001 to 0.0015 s⁻¹. Also, the “kinact MIF2 (rate of enzyme inactivation)” value in test [4] was 0.061 ± 0.010 min⁻¹.

On to `CC(C)c1nc(I)cc(-c2ccc(C(=O)O)cc2)n1` [Compound 11, 4-(6-Iodo-2-isopropylpyrimidin-4-yl)benzoic acid], for which the values for the IC50 in test [1] (setting [7]) and in test [2] (setting [8]) were more than 250 µM and 112 µM, respectively.

In the case of `CC(C)c1nc(Cl)cc(-c2ccc(C(=O)O)cc2)n1` [Compound 11a, 4-(6-Chloro-2-isopropylpyrimidin-4-yl)benzoic acid], the IC50 in test [1] (setting [7]) and in test [2] (setting [8]) was more than 250 µM in each case.

Source of the values: publication PMC9299485, “4‐Iodopyrimidine Labeling Reveals Nuclear Translocation and Nuclease Activity for Both MIF and MIF2” (Chemistry (Weinheim an Der Bergstrasse, Germany), 2021).
